Measured values published in patent US20110092440A1, “METHOD OF REGULATING CELL GROWTH USING A PROTEASOME INHIBITOR” (THE BOARD OF TRUSTEES OF THE UNIVERSITY OF ILLINOIS, priority 2008, published 2011).
Non-standard residues stand in square brackets, D forms with d. Residues, ends and D or L forms follow the SMILES beside them. *: point of attachment. Nva = CCC[C@H](N)C(=O)O; Cbz = O=C(OCc1ccccc1)*; OtBu = CC(C)(C)O*

Key:
[1] = test system: NF-κB transcriptional activity; experiment: TNF-α-induced NF-κB-dependent luciferase assay in 293T-NF-κB-Luc cells; type: cell-based; conditions: 10 ng/mL TNF-α 24 hours, then compound 10 hours, FIG. 1B
Procedure: Proteasome inhibitors were known to inhibit the activity of NF-κB via the stabilization of its negative regulator IκB-α (Nakanishi et al., 2005, Nat Rev Cancer 5:297-309; Nencioni et al., 2007). The effects of Siomycin A and thiostrepton on NF-κB-dependent transcriptional activity were tested. 293T cells stably transfected with an NF-κB-Luc reporter construct (293T-NF-κB-Luc) were induced with 10 ng/mL TNF-αfor 24 hours. The next day, the cells were treated with Siomycin A or thiostrepton for an additional 10 hours, and followed by luciferase assay. The luciferase activity was determined by using the Luciferase Assay System (Promega, Madison, Wis.) according to the manufacturer's instructions. The data were normalized based on the amount of proteins in the samples.

20S proteasome = molecular target: T1, 20S proteasome (Homo sapiens, UniProt P28074); experiment: 20S Proteasome Activity Assay Kit (LLVY-AMC cleavage); type: biochemical; conditions: 25 μM, 15 minutes pre-incubation, 1 hour at 37° C., FIG. 1C
T1 construct: Millipore
Procedure: The effects of Siomycin A and thiostrepton on the 20S proteasome were compared with proteasome inhibitors MG132 and lactacystin using the Proteasome Activity Assay Kit following the manufacturer's instructions (Millipore). […] Proteasome samples were prepared according to the manufacturer's instructions. […] Samples were incubated for 1 hour at 37° C. and the fluorescence derived from the cleaved AMC was detected and quantified using a 380/460 nm filter in a fluorometer (Spectra Max GeminiXS, Molecular Devices, Sunnyvale, Calif.).

[2] = test system: Prostate cancer DU145 and PC3 cells; type: cell-based; conditions: data not shown
[3] = test system: FoxM1 transcriptional activity; conditions: previously reported (US 2008/0152618; Radhakrishnan et al., 2006); cited from earlier work
U2OS-C3 cells = experiment: Active caspase 3 immunoblot in U2OS-C3 cells with doxycycline-induced FoxM1 over-expression; type: cell-based, human; conditions: compound 24 hours, FIG. 4
Procedure: Over-expression of FoxM1 was often observed in a variety of tumors. See Pilarsky et al., 2004, Neoplasia 6(6):744-750; Chan et al., 2008, J Pathol 215(3):245-252. A U2OS-derived cell line stably expressing doxycycline-inducible FoxM1-GFP fusion protein (U2OS-C3) was used to examine the role of FoxM1 in apoptosis induced by proteasome inhibitors. Exogenous FoxM1 expression was induced by doxycycline and the following day the cells were treated with different concentrations of VELCADE® for 24 hours.

[4] = test system: Hdm2, p53, Mcl-1 and p21 protein levels in U2OS cells; experiment: Immunoblot analysis of Hdm2, p53, Mcl-1 and p21 protein levels in U2OS cells; type: cell-based, human; conditions: FIG. 1A
Description: The effects of Siomycin A on the protein levels of these genes in the cells were compared with those of a proteasome inhibitor MG132.

Mia Paca cells = experiment: Apoptosis induction by Siomycin A alone, Mia Paca; type: cell-based, human; conditions: data not shown
BxPC3 cells = experiment: Apoptosis induction by Siomycin A alone, BxPC3; type: cell-based, human; conditions: data not shown
MDAMB231 cells = experiment: Apoptosis induction by Siomycin A alone, MDAMB231; type: cell-based, human; conditions: data not shown
HPAC cells = experiment: Apoptosis induction by Siomycin A alone, HPAC; type: cell-based, human; conditions: data not shown
[5] = test system: FoxM1 transcriptional activity; experiment: FoxM1-dependent luciferase assay in U2OS-C3-Luc cells; type: cell-based, human; conditions: 1 μg/ml doxycycline, 24 hours, FIG. 2A
Procedure: The effects of proteasome inhibitors on FoxM1 transcriptional activity were tested by examining FoxM1-dependent luciferase activity in a luciferase assay. It was previously reported that thiazole antibiotics inhibited FoxM1-dependent transcriptional activity by measuring the reduction of luciferase activity in a U2OS-derived cell line stably expressing doxycycline-inducible FoxM1 and FoxM1-dependent luciferase (the U2OS-C3-Luc cell line). See U.S. Patent Application Publication No. 2008/0152618; Radhakrishnan et al. 2006; and Bhat et al., 2009. The same cell line was used in this experiment. U2OS-C3-Luc cells were treated with a combination of 1 μg/ml doxycycline and proteasome inhibitors at indicated concentrations for 24 hours, and the luciferase activity was measured. The luciferase activity was determined by using either the Luciferase Assay System (Promega, Madison, Wis.) or the Dual-Luciferase reporter assay system (Promega) according to the manufacturer's instructions.
The results shown in FIG. 2A (1) were normalized by the amount of proteins in the sample; and the results shown in FIG. 2A (2) were normalized using the Dual-luciferase reporter assay system (Promega).

FoxM1 protein = experiment: Immunoblot analysis of FoxM1 protein levels in tumor cells; type: cell-based, human; conditions: U266, RPMI8226, HL-60 and U2OS cells, 24 hours, FIG. 2B
Procedure: The effects of proteasome inhibitors on FoxM1 protein expression were also examined. U266 and RPMI8226, both multiple myeloma cells, HL-60 leukemia cells and human U2OS osteosarcoma cells were treated with proteasome inhibitors MG115, MG132 and VELCADE® for 24 hours. Cell lysates were harvested and the FoxM1 protein levels were analyzed by immunoblot analysis. […] See also U.S. Patent Application Publication No. 2008/0152618.

[6] = test system: U266 and RPMI8226 multiple myeloma, HL-60 leukemia and U2OS osteosarcoma cells; experiment: Annexin V-PE/7AAD staining, FACS analysis of apoptosis; type: cell-based, human; conditions: U266, RPMI8226, HL-60 and U2OS cells, FIG. 3
Procedure: Proteasorne inhibitor-induced apoptosis was further quantified by using Annexin V-PE/7AAD staining. U266 and RPMI8226 multiple myeloma, HL-60 leukemia and U2OS osteosarcoma cells were cultured in the presence of proteasome inhibitors MG115, MG132 and VELCADE®. Following proteasome inhibitor treatment (or DMSO in the control), cells were stained with Annexin V-PE/7AAD (BD-Pharmingen, Franklin Lakes, N.J.) and then analyzed by Fluorescence-activated Cell Sorting (FACS). […] The concentrations of proteasome inhibitors used in the experiments shown in FIG. 3 were the same as those in FIG. 2. The percentages of apoptotic cells were shown in the parentheses in FIG. 3. The induction of apoptosis correlated with the suppression of FoxM1 (see FIG. 3 and FIG. 2B).

[7] = toxicity studies, Aghajanian et al., 2002; cited from earlier work

## C=C(NC(=O)C(=C)NC(=O)c1csc(C2=N[C@@H]3c4csc(n4)[C@H]4NC(=O)c5csc(n5)[C@H]([C@](C)(O)[C@@H](C)O)NC(=O)[C@H]5CSC(=N5)/C(=C/C)NC(=O)[C@H]([C@@H](C)O)NC(=O)c5csc(n5)[C@]3(CC2)NC(=O)[C@H](C)NC(=O)C(=C)NC(=O)[C@H](C)NC(=O)[C@H]([C@@H](C)CC)N[C@@H]2C=Cc3c([C@H](C)O)cc(nc3[C@H]2O)C(=O)O[C@@H]4C)n1)C(N)=O [thiostrepton]
[1]
  TNF-α-induced NF-κB transcriptional activity: suppressed TNF-α-induced NF-κB transcriptional activity
20S proteasome
  proteolytic activity of the 20S proteasome (free AMC): decreased proteolytic activity of the 20S proteasome
[2]
  minimal concentration required for induction of caspase 3 expression, compound alone: 3 µM
[3]
  FoxM1 transcriptional activity and FoxM1 protein expression, reported previously: inhibited FoxM1 transcriptional activity as well as FoxM1 protein expression in cells

## COc1cccc2c1C(=O)c1c(O)c3c(c(O)c1C2=O)C[C@@](O)(C(=O)CO)C[C@@H]3O[C@H]1C[C@H](N)[C@H](O)[C@H](C)O1 [doxorubicin]
U2OS-C3 cells
  active caspase 3 expression in cells over-expressing FoxM1: over-expression of FoxM1 did not protect against doxorubicin-induced caspase 3 expression

## C=C(NC(=O)C(=C)NC(=O)c1csc(C2=N[C@@H]3c4csc(n4)[C@H]4NC(=O)c5csc(n5)[C@H]([C@](C)(O)[C@@H](C)O)NC(=O)[C@H]5CSC(=N5)/C(=C/C)NC(=O)[C@H]([C@@H](C)O)NC(=O)c5csc(n5)[C@]3(CC2)NC(=O)[C@H](C)NC(=O)C(=C)NC(=O)C(=C)NC(=O)[C@H](C(C)C)N[C@@H]2C=Cc3c([C@H](C)O)cc(nc3[C@H]2O)C(=O)O[C@@H]4C)n1)C(N)=O [Siomycin A]
[4]
  cellular protein levels of Hdm2, p53, Mcl-1 and p21: increased the cellular protein levels of Hdm2, p53, Mcl-1 and p21
[1]
  TNF-α-induced NF-κB transcriptional activity: suppressed TNF-α-induced NF-κB transcriptional activity
20S proteasome
  proteolytic activity of the 20S proteasome (free AMC): decreased proteolytic activity of the 20S proteasome
Mia Paca cells
  concentration required to induce apoptosis when used alone: 5 µM
BxPC3 cells
  concentration required to induce apoptosis when used alone: 5 µM
MDAMB231 cells
  concentration required to induce apoptosis when used alone: 5 µM
HPAC cells
  concentration required to induce apoptosis when used alone: 10 to 15 µM
[3]
  FoxM1 transcriptional activity and FoxM1 protein expression, reported previously: inhibited FoxM1 transcriptional activity as well as FoxM1 protein expression in cells

## CC(=O)N[C@@H](CSC(=O)[C@]1([C@@H](O)C(C)C)NC(=O)[C@H](C)[C@@H]1O)C(=O)O [lactacystin]
20S proteasome
  proteolytic activity of the 20S proteasome (free AMC): the decrease was not as prominent as that by MG132 or lactacystin

## CC[C@H](C)[C@H](NC(=O)OCc1ccccc1)C(=O)N[C@@H](CCC(=O)OC(C)(C)C)C(=O)N[C@@H](C)C(=O)N[C@H](C=O)CC(C)C [PSI, N-benzyloxycarbony-Ile-Glu-(O-t-butyl)-Ala-leucinal] (Cbz-IE(OtBu)AL-aldehyde)
[5]
  FoxM1 transcriptional activity (luciferase): inhibited FoxM1 transcriptional activity

## CC(C)C[C@H](NC(=O)[C@H](Cc1ccccc1)NC(=O)c1cnccn1)B(O)O [VELCADE®, pyrazylcarbony-phenylalanyl-leucyl-boronate]
[5]
  FoxM1 transcriptional activity (luciferase): inhibited FoxM1 transcriptional activity
FoxM1 protein
  levels of FoxM1 protein: the levels of FoxM1 protein decreased
[6]
  induction of apoptosis (Annexin V-PE/7AAD): induced apoptosis in the cells
U2OS-C3 cells
  active caspase 3 expression in cells over-expressing FoxM1: VELCADE®-induced active caspase 3 expression was reduced in cells that over-expressed FoxM1
[2]
  minimal concentration required for induction of caspase 3 expression, compound alone: 0.05 µM
[7]
  therapeutic index: very narrow therapeutic index

## CC(C)C[C@@H](C=O)NC(=O)[C@H](CC(C)C)NC(=O)[C@H](CC(C)C)NC(=O)OCc1ccccc1 [MG132, Z-L-leucyl-L-leucyl-L-leucinal] (Cbz-Leu-Leu-Leu-aldehyde)
20S proteasome
  proteolytic activity of the 20S proteasome (free AMC): the decrease was not as prominent as that by MG132 or lactacystin
[5]
  FoxM1 transcriptional activity (luciferase): inhibited FoxM1 transcriptional activity
FoxM1 protein
  levels of FoxM1 protein: the levels of FoxM1 protein decreased
[6]
  induction of apoptosis (Annexin V-PE/7AAD): induced apoptosis in the cells

## CCC[C@@H](C=O)NC(=O)[C@H](CC(C)C)NC(=O)[C@H](CC(C)C)NC(=O)OCc1ccccc1 [MG115, Z-L-leucyl-L-leucyl-L-norvalinal] (Cbz-Leu-Leu-[Nva]-aldehyde)
[5]
  FoxM1 transcriptional activity (luciferase): inhibited FoxM1 transcriptional activity
FoxM1 protein
  levels of FoxM1 protein: the levels of FoxM1 protein decreased
[6]
  induction of apoptosis (Annexin V-PE/7AAD): induced apoptosis in the cells
